# According to US20050272817A1, “Dermatological use and a dermatological preparation” (priority 2000, published 2005):
# Assays:
# [1] = system: psoriatic plaques; assay: Continuation of the therapeutic trial from 35 days onward (to 70 days); assay type: in vivo, human; conditions: for change (reduction) in plaque area: from day 35: plaque 2 (earlier Daivonex) no treatment, plaque 3 (earlier T4A) Locobase, plaque 4 (earlier T4A+T4) T4 ointment 5 μg/cm^2/24 h; for effect on psoriatic rash (in words): topically applied
# Procedure: The therapeutic trial was continued from 35 days onward as follows:
# Locobase® ointment containing […], T4, per gram (University Pharmacy, Helsinki, Finland).
# As previously, the ointments were applied to the target plaques at 50 mg/cm^2 twice in 24 hours. Thus, the dose of T4 to plaque 4 was 5 μg T4 per cm^2 per 24 hours.
# [2] = system: psoriasis; conditions: topical calcipotriol therapy; cited from earlier work
# [3] = system: thyroid hormone activity; conditions: background statement; cited from earlier work
# [4] = system: psoriatic plaques; assay: Additional embodiment: topical T3A or D-T4 with or without T4A on psoriatic plaques, 35 days; assay type: in vivo, human; conditions: for effect on psoriatic rash (conclusions, in words): topically administered
# Procedure: Simultaneous topical treatment of four untreated, typically scaling and demarcated dermatitic plaques (plaques 1-4) in a psoriatic patient was undertaken. Plaque 5 was left untreated for comparison.
# The areas of the plaques at initiation of the treatment were as follows: plaque 1: 5.3 cm^2, plaque 2: 4.9 cm^2, plaque 3: 6.4 cm^2, plaque 4: 5.3 cm^2; plaque 5: 5.6 cm^2.
# Triacana® cream containing 200 μg 3,5,3′-triiodothyroacetic acid, T3A, (triac, tiratricol) per gram.
# Triacana® cream plus Locobase® unctuous cream containing 500 μg 3,3′,5,5′-tetraiodothyroacetic acid, T4A, per gram (University Pharmacy, Helsinki, Finland. Ex tempore-preparation).
# Locobase® unctuous cream containing 2500 μg D-thyroxine, D-T4, per gram (University Pharmacy, Helsinki, Finland. Ex tempore-preparation).
# Locobase® unctuous cream containing 2500 μg D-thyroxine, D-T4, per gram (University Pharmacy, Helsinki, Finland. Ex tempore-preparation) plus Locobase® unctuous cream containing 500 μg 3,3′,5,5′-tetraiodothyroacetic acid, T4A, per gram (University Pharmacy, Helsinki, Finland. Ex tempore-preparation).
# Triacana® cream was applied to plaques 1 and 2 at 125 mg/cm^2 twice in 24 hours, corresponding to 50 μg 3,5,3′-triiodothyroacetic acid per cm^2 per 24 hours.
# T4A-ointment was applied to plaque 2 concurrently with Triacana® cream at 50 mg/cm^2 twice in 24 hours, corresponding to 50 μg 3,3′,5,5′-tetraiodothyroacetic acid per cm^2 per 24 hours.
# D-T4-ointment was applied to plaques 3 and 4 at 50 mg/cm^2 twice in 24 hours, corresponding to 250 μg D-T4, per cm^2 per 24 hours.
# T4A-ointment was applied to plaque 4 concurrently with the D-T4-ointment at 50 mg/cm^2 twice in 24 hours corresponding to 50 μg/cm^2 3,3′,5,5′-tetraiodothyroacetic acid per cm^2 per 24 hours.
# Treatment was continued in this manner for 35 days.
# [5] = system: psoriatic plaques; assay: Topical treatment of psoriatic plaques in a psoriatic patient, 35 days; assay type: in vivo, human; conditions: for change (reduction) in plaque area: ointment 50 mg/cm^2 twice in 24 hours
# Text: Simultaneous topical treatment of four untreated, typically scaling and sharply demarcated dermatitic plaques ([…]) in a psoriatic patient was undertaken. Plaque 5 was left untreated for comparison.
# The areas of the plaques at initiation of the treatment were as follows: plaque 1: 8.7 cm^2; plaque 2: 8.1 cm^2; plaque 3: 6.8 cm^2; plaque 4: 6.1 cm^2; plaque 5: 6.4 cm^2.
# The following ointments were applied to plaques 1-4:
# Locobase.RTM. unctuous cream (Yamanouchi Europe B. V., Leiderup, Holland).
# Daivonex.RTM. calcipotriol ointment containing 50µg calcipotriol per gram (L.o slashed.vens Kemiske Fabrik, Ballerup, Denmark).
# Locobase.RTM.D unctuous cream containing 500µg 3,3′,5,5′-tetraiodothyroacetic acid, T4A, per gram (University Pharmacy, Helsinki, Finland).
# Locobase.RTM. unctuous cream containing 500 μg T4A per gram and […], T4, per gram (University Pharmacy, Helsinki, Finland).
# Each ointment was applied to the plaques at 50 mg/cm^2 twice in 24 hours, corresponding to 5µg calcipotriol per cm^2 per 24 hours for plaque 2, 50 μg T4A per cm^2 per 24 hours for plaques 3 and 4, and 5 μg T4 per cm^2 per 24 hours for plaque 4. Treatment was continued in this manner for 35 days.
# The results are presented in Table 1 below, showing the change (reduction) in plaque area with time (days).
# [6] = system: psoriatic plaque; assay: Topical T4P ointment on a previously untreated psoriatic plaque; assay type: in vivo, human; conditions: T4P 25 μg/cm^2 twice per 24 hours for 35 days; follow-up 42 days
# Procedure: The topical effect of T4P, 3,3′,5,5′-tetraiodothyropropionic acid ointment on a previously untreated psoriatic plaque, on psoriasis was studied in a therapeutic design identical with the above. The dosage of T4P was 25 μg/cm^2 twice per 24 hours for 35 days. The follow-up period was 42 days. […] Effect of 3,3′,5,5′-tetraiodothyropropionic acid (T4P) ointment on a previously untreated psoriatic plaque. The dosage of T4P was 25 μg/cm^2 twice per 24 hours for 35 days. The follow-up period was 42 days.
smiles,measurement,setting,value
"N[C@@H](Cc1cc(I)c(Oc2cc(I)c(O)c(I)c2)c(I)c1)C(=O)O [T4, 3,3′,5,5′-tetraiodo-L-thyronine, reference compound]",change (reduction) in plaque area,[1]; 42 days,70%
same,change (reduction) in plaque area,[1]; 50 days,25%
same,change (reduction) in plaque area,[1]; 62 days,-10%
same,change (reduction) in plaque area,[1]; 70 days,−50% ^
same,increase of the area of plaque 4 compared with baseline,"[1]; T4 ointment 5 μg/cm^2/24 h from day 35 to day 70, plaque previously treated with T4A+T4",50%
same,effect on psoriatic rash (in words),[1],worsened
C=C1/C(=C\C=C2/CCC[C@]3(C)[C@@H]([C@H](C)/C=C/[C@@H](O)C4CC4)CC[C@@H]23)C[C@@H](O)C[C@@H]1O [calcipotriol],"complete removal of dermatitic plaques, share of cases",[2],about 15%
"N[C@@H](Cc1cc(I)c(Oc2ccc(O)c(I)c2)c(I)c1)C(=O)O [T3, 3,3′,5-triiodo-L-thyronine, reference compound]",thyroid hormone activity relative to T4,[3],five times that of T4
"O=C(O)Cc1cc(I)c(Oc2ccc(O)c(I)c2)c(I)c1 [T3A, 3,5,3′-triiodothyroacetic acid]","effect on psoriatic rash (conclusions, in words)",[4],did not have any visible effect
"O=C(O)Cc1cc(I)c(Oc2cc(I)c(O)c(I)c2)c(I)c1 [T4A, 3,3′,5,5′-tetraiodothyroacetic acid]",thyroid hormone activity relative to T4,[3],about one-fourth
same,change (reduction) in plaque area,[1]; 42 days,95%
same,change (reduction) in plaque area,[1]; 50 days,95%
same,change (reduction) in plaque area,[1]; 62 days,90%
same,change (reduction) in plaque area,[1]; 70 days,80%
same,inhibition of the rash-worsening effect of T4,[1]; topical T4A 50 μg/cm^2/24 h with T4 5 μg/cm^2/24 h,completely inhibits this effect
same,effect on psoriatic rash (in words),[1],therapeutically efficacious
same,change (reduction) in plaque area,[5]; 14 days,45%
same,change (reduction) in plaque area,[5]; 21 days,65%
same,change (reduction) in plaque area,[5]; 28 days,85%
same,effect on psoriatic plaques (in words),[5]; 35 days topical treatment,clear effect
same,"therapeutic efficacy in terms of reduction in plaque area, compared with calcipotriol ointment",[5]; 35 days topical treatment,better than that of the calcipotriol ointment
same,change (reduction) in plaque area,[5]; 35 days,90%
same,"effect on psoriatic rash (conclusions, in words)",[4],separate and prominent antipsoriatic effect
"O=C(O)CCc1cc(I)c(Oc2cc(I)c(O)c(I)c2)c(I)c1 [T4P, 3,3′,5,5′-tetraiodothyropropionic acid]",thyroid hormone activity relative to T4,[3],about one-fourth
same,inhibition of the effects of T4,[6],completely inhibit the effects of T4
same,therapeutic efficacy compared with T4A,[6],equal to T4A in therapeutic efficacy
"N[C@H](Cc1cc(I)c(Oc2cc(I)c(O)c(I)c2)c(I)c1)C(=O)O [D-T4, D-thyroxine]",thyroid hormone activity relative to T4,[3],substantially less thyroid hormone activity than T4
same,changes in the area or appearance of the plaque during the whole treatment period,"[4]; 35 days, T3A 50 μg/cm^2/24 h or D-T4 250 μg/cm^2/24 h alone",no visible changes
same,"effect on psoriatic rash (conclusions, in words)",[4],did not have any visible effect
